Assay results from PMC4620497 (Scientific Reports, 2015).
Read-outs that look alike come from different tables or passages of the source.

Experiments:
ERBB4 = target: T1, ERBB4 (Homo sapiens, UniProt Q15303); design: method as in earlier work; details: Table S1; cited from earlier work
T1 construct: purchased DiscoveRx KINOMEscan (Ambit Biosciences)

[1] = target: T2, ABL1(F317I)-nonphosphorylated (Homo sapiens, UniProt P00519, F317I); experiment: KINOMEscan panel screen; format: binding; details: read-out: Percent Control(%)
T2 construct: purchased DiscoveRx KINOMEscan (Ambit Biosciences)
T2 sequence (P00519 whole entry F317I): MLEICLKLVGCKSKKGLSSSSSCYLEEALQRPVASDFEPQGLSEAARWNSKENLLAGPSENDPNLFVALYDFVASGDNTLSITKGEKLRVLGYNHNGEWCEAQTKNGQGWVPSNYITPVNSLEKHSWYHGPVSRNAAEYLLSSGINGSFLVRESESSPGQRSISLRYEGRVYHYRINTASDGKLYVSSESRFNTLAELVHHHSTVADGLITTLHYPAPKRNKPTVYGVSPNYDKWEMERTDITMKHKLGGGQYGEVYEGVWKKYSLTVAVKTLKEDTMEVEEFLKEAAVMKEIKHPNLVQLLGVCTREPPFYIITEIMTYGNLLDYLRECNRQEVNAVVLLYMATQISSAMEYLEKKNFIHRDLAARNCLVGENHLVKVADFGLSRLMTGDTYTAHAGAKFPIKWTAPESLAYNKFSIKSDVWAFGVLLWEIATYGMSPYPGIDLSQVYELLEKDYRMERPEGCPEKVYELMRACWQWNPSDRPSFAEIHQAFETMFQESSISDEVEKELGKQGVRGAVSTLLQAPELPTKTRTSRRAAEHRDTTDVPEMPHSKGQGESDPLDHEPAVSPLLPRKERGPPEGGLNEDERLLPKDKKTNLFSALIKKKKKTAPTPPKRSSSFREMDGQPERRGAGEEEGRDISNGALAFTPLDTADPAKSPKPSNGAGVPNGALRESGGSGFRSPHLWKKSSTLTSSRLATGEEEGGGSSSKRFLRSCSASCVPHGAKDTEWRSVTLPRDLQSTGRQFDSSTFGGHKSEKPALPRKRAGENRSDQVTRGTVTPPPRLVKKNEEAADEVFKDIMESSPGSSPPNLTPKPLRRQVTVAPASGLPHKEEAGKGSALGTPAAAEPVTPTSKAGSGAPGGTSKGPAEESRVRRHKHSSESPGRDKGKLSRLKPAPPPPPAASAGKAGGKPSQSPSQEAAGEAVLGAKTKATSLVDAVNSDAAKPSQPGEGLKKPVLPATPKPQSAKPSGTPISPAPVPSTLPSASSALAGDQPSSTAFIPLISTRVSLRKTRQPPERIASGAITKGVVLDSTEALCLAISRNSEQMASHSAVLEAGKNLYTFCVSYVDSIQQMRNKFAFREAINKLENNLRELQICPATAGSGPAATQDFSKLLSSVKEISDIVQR

ABL1-nonphosphorylated = target: T3, ABL1-nonphosphorylated (Homo sapiens, UniProt P00519); experiment: KINOMEscan panel screen; format: binding; details: read-out: Percent Control(%)
T3 construct: purchased DiscoveRx KINOMEscan (Ambit Biosciences)
T3 sequence (P00519 whole entry): as the sequence (P00519 whole entry F317I) above, with I317F counted along it

BMPR1B = target: T4, BMPR1B (Homo sapiens, UniProt O00238); experiment: KINOMEscan panel screen; format: binding; details: read-out: Percent Control(%)
T4 construct: purchased DiscoveRx KINOMEscan (Ambit Biosciences)

CAMK1D = target: T5, CAMK1D (Homo sapiens, UniProt Q8IU85); experiment: KINOMEscan panel screen; format: binding; details: read-out: Percent Control(%)
T5 construct: purchased DiscoveRx KINOMEscan (Ambit Biosciences)
T5 sequence (Q8IU85 whole entry): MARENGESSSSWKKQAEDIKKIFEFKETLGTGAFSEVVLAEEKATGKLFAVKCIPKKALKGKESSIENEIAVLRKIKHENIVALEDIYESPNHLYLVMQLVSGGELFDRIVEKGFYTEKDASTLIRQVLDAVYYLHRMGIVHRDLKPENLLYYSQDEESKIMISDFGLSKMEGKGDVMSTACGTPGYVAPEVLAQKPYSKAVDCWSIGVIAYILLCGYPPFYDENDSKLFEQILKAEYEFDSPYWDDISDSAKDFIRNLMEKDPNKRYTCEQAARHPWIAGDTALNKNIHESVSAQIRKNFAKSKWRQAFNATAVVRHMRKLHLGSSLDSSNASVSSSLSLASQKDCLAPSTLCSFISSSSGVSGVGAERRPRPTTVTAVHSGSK

CHEK1 = target: T6, CHEK1 (Homo sapiens, UniProt O14757); experiment: KINOMEscan panel screen; format: binding; details: read-out: Percent Control(%)
T6 construct: purchased DiscoveRx KINOMEscan (Ambit Biosciences)
T6 sequence (O14757 1-476): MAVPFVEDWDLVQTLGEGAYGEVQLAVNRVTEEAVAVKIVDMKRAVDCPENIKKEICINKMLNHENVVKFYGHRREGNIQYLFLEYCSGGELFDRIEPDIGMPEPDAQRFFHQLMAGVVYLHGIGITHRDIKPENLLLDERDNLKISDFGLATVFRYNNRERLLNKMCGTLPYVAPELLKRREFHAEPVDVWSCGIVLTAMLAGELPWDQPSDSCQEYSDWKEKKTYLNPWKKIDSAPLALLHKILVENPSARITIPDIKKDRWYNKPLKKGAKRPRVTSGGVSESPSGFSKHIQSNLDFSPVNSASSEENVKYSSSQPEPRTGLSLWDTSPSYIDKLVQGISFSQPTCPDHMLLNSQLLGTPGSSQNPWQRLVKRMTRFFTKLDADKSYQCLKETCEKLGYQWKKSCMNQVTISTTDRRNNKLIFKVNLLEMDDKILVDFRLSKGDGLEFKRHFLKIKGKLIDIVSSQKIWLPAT

CLK4 = target: T7, CLK4 (Homo sapiens, UniProt Q9HAZ1); experiment: KINOMEscan panel screen; format: binding; details: read-out: Percent Control(%)
T7 construct: purchased DiscoveRx KINOMEscan (Ambit Biosciences)
T7 sequence (Q9HAZ1 whole entry): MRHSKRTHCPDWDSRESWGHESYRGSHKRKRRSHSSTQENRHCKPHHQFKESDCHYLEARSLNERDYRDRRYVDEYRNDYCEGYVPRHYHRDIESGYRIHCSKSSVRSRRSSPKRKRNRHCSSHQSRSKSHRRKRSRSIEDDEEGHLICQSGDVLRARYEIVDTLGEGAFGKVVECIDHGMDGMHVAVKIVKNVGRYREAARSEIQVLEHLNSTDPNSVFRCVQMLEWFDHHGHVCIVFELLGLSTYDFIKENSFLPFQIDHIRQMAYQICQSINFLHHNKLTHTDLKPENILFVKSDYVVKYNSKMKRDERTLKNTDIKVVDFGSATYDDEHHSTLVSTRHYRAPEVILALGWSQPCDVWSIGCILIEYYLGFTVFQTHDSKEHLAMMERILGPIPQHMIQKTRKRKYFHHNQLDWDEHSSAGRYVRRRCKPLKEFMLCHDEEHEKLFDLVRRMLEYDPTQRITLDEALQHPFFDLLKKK

CSNK1E = target: T8, CSNK1E (Homo sapiens, UniProt P49674); experiment: KINOMEscan panel screen; format: binding; details: read-out: Percent Control(%)
T8 construct: purchased DiscoveRx KINOMEscan (Ambit Biosciences)
T8 sequence (P49674 whole entry): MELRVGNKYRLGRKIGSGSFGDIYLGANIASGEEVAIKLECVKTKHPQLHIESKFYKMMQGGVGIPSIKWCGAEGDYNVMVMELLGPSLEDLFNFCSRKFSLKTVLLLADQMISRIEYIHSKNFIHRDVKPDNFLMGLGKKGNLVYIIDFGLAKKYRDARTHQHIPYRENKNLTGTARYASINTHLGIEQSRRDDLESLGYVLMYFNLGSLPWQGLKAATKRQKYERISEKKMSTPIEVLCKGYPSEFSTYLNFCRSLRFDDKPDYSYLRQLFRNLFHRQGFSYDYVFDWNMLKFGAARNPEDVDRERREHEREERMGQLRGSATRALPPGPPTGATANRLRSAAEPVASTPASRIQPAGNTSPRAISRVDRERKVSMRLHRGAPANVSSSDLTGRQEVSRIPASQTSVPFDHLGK

CSNK1G3 = target: T9, CSNK1G3 (Homo sapiens, UniProt Q9Y6M4); experiment: KINOMEscan panel screen; format: binding; details: read-out: Percent Control(%)
T9 construct: purchased DiscoveRx KINOMEscan (Ambit Biosciences)

IKK-beta = target: T10, IKK-beta (Homo sapiens, UniProt O14920); experiment: KINOMEscan panel screen; format: binding; details: read-out: Percent Control(%)
T10 construct: purchased DiscoveRx KINOMEscan (Ambit Biosciences)

[2] = target: T11, JAK2(JH1domain-catalytic) (Homo sapiens, UniProt O60674); experiment: KINOMEscan panel screen; format: binding; details: read-out: Percent Control(%)
T11 construct: JAK2(JH1domain-catalytic); purchased DiscoveRx KINOMEscan (Ambit Biosciences)

MAP3K2 = target: T12, MAP3K2 (Homo sapiens, UniProt Q9Y2U5); experiment: KINOMEscan panel screen; format: binding; details: read-out: Percent Control(%)
T12 construct: purchased DiscoveRx KINOMEscan (Ambit Biosciences)
T12 sequence (Q9Y2U5 whole entry): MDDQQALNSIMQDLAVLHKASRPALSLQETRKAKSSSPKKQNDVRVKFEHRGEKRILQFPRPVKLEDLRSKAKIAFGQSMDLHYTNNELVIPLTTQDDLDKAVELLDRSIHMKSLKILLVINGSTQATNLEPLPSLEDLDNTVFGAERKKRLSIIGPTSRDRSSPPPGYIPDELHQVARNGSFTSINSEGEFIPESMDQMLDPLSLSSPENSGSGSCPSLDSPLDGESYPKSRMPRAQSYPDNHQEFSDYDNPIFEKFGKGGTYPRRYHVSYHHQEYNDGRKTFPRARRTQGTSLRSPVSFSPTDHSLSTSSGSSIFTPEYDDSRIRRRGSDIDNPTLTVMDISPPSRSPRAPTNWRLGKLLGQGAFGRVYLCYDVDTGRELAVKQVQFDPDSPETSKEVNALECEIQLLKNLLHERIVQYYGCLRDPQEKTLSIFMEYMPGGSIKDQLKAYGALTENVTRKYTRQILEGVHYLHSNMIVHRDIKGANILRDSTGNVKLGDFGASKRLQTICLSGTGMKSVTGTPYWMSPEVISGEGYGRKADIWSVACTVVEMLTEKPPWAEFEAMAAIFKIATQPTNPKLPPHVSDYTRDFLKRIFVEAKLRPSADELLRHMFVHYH

MAP4K4 = target: T13, MAP4K4 (Homo sapiens, UniProt O95819); experiment: KINOMEscan panel screen; format: binding; details: read-out: Percent Control(%)
T13 construct: purchased DiscoveRx KINOMEscan (Ambit Biosciences)
T13 sequence (O95819 whole entry): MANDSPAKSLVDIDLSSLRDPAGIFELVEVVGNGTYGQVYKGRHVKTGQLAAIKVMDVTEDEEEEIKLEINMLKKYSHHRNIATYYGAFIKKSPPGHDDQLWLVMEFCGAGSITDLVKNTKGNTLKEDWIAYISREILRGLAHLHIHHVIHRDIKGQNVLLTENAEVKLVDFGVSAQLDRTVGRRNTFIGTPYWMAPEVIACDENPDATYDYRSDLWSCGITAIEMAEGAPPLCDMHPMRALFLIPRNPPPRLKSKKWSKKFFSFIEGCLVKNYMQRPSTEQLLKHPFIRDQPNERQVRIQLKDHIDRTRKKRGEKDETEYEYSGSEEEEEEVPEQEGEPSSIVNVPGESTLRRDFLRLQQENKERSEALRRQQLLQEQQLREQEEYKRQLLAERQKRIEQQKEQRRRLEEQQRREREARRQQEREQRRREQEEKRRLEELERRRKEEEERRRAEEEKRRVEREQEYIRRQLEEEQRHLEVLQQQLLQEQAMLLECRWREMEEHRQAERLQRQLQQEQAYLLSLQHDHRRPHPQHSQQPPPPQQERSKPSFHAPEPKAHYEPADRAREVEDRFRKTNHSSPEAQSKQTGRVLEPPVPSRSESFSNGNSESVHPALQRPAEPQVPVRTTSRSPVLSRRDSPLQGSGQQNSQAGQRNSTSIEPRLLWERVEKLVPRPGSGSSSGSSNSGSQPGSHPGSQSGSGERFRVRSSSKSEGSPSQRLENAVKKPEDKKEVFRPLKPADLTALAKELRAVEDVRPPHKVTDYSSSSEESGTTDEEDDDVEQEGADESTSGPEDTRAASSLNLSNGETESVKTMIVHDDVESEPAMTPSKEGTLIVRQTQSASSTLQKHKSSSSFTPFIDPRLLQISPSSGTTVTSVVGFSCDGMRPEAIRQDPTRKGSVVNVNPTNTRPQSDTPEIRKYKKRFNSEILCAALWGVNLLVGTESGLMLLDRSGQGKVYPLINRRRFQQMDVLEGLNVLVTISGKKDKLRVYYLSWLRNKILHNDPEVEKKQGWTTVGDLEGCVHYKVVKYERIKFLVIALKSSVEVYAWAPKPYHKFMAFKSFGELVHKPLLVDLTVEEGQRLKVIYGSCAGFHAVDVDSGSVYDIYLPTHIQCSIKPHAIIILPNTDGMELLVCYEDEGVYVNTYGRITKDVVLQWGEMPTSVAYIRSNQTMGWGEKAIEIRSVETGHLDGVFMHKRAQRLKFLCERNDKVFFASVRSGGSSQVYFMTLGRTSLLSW

MINK = target: T14, MINK (Homo sapiens, UniProt Q8N4C8); experiment: KINOMEscan panel screen; format: binding; details: read-out: Percent Control(%)
T14 construct: purchased DiscoveRx KINOMEscan (Ambit Biosciences)

MST4 = target: T15, MST4 (Homo sapiens, UniProt Q9P289); experiment: KINOMEscan panel screen; format: binding; details: read-out: Percent Control(%)
T15 construct: purchased DiscoveRx KINOMEscan (Ambit Biosciences)

PIK3CA(E542K) = target: T16, PIK3CA(E542K) (Homo sapiens, UniProt P42336, E542K); experiment: KINOMEscan panel screen; format: binding; details: read-out: Percent Control(%)
T16 construct: purchased DiscoveRx KINOMEscan (Ambit Biosciences)

PRKCE = target: T17, PRKCE (Homo sapiens, UniProt Q02156); experiment: KINOMEscan panel screen; format: binding; details: read-out: Percent Control(%)
T17 construct: purchased DiscoveRx KINOMEscan (Ambit Biosciences)
T17 sequence (Q02156 whole entry): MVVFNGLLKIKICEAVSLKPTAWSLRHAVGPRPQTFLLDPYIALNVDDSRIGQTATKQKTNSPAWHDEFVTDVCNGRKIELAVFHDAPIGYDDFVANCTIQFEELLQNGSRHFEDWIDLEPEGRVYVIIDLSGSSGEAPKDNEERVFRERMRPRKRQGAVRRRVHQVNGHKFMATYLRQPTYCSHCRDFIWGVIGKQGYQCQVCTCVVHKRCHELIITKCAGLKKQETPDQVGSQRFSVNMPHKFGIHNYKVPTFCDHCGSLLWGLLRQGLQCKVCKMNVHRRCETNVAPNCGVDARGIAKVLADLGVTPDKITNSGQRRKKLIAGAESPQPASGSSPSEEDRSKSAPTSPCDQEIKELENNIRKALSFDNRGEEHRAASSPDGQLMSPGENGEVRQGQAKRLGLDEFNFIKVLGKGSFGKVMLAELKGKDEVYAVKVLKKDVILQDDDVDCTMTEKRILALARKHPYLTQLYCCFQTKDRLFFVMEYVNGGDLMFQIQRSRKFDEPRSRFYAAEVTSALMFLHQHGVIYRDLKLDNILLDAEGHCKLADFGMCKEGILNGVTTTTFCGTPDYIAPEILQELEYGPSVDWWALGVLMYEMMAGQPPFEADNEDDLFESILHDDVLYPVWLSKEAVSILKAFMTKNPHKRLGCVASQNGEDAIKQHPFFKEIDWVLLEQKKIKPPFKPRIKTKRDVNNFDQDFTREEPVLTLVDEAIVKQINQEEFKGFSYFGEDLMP

[3] = system: MV4-11 bone marrow transplant; experiment: MV4-11 bone marrow engraftment model; format: in vivo, NOD-SCID mice; details: for mean survival time (MST): vehicle 51 days
Description: Finally, the influence of SKLB-677 on survival time was examined using a bone marrow (BM) transplant model of MV4-11. In the vehicle control group, the mean survival time (MST) was 51 days, with all animals expired by day 58.
NOD-SCID mice were pretreated with cyclophosphamide by intraperitoneal injection of 150 mg/kg/d for 2 days. Following a 24-hour rest period, the mice were intravenously injected with 8 × 10^6 MV4-11 cells per mouse via the tail vein. From the day 21 after inoculation, SKLB-677 or vehicle was administered orally once a day for 30 days.
Supplementary Figure S9. NOD- SC ID mice were intravenousl y inject ed with 8×10^6 MV4-11 cells per mouse via the tail vein. Oral administration of S K LB -677 at 10 mg/kg/d was initiated on day 21 after the inoculati on. Mouse ( 3mice per group) thigh femurs were collected for immunohistochemical Ki67 anal ysis after 6 d a ys of […]
regression of bone marrow tumor. Scale bar, 100μm.
(1 picture or pasted object on this page, not shown here)

Molm-13 = experiment: MTT cell viability assay; details: Homo sapiens, MOLM-13, 72 h
H441 = experiment: MTT cell viability assay; details: Homo sapiens, NCI-H441, 72 h
MDA-MB-231 = experiment: MTT cell viability assay; details: Homo sapiens, MDA-MB-231, 72 h
FLT3-D835Y = FLT3-D835Y (Homo sapiens, UniProt P36888, D835Y); experiment: KINOMEscan kinase binding assay (Kd); design: purchased Ambit Biosciences (KINOMEscan)

In the case of `O=C(Nc1ccc(Oc2ncnc3[nH]ncc23)cc1)Nc1ccc(Cl)c(C(F)(F)F)c1` [Compound 1, 1-(4-(1H-pyrazolo[3,4-d]pyrimidin-4-yloxy)phenyl)-3-(4-chloro-3-(trifluoromethyl)phenyl)urea], the IC50 (ERBB4) is given as greater than 10000 nM.

In the case of `CC(C)(C)c1cc(NC(=O)Nc2ccc(Oc3ncnc4[nH]ncc34)c(F)c2)no1` [SKLB-677, 1-(4-(1H-pyrazolo[3,4-d]pyrimidin-4-yloxy)-3-fluorophenyl)-3-(5-tert-butylisoxazol-3-yl)urea], the remaining binding at 10 µM [1] is reported as 2.2%, the remaining binding at 10 µM (ABL1-nonphosphorylated) is reported as 1.2% and the remaining binding at 10 µM (BMPR1B) is reported as 88%. It also gave a remaining binding at 10 µM (CAMK1D) of 35%, a remaining binding at 10 µM (CHEK1) of 100% and a remaining binding at 10 µM (CLK4) of 9.6%. The remaining binding at 10 µM (CSNK1E) was 31%, the remaining binding at 10 µM (CSNK1G3) was 70% and the remaining binding at 10 µM (IKK-beta) was 64%. The remaining binding at 10 µM [2] was 31%, the remaining binding at 10 µM (MAP3K2) was 100% and the remaining binding at 10 µM (MAP4K4) was 0%. For the same compound, the remaining binding at 10 µM (MINK) was 2.3%, the remaining binding at 10 µM (MST4) was 24% and the remaining binding at 10 µM (PIK3CA(E542K)) was 100%. The remaining binding at 10 µM (PRKCE) was 90%, the “mean survival time (MST)” value ([3]; 3 mg/kg/day orally for 30 days) was 66 days and the “number of Ki67-positive cells in femur BM” value ([3]; 10 mg/kg/d for 6 days) was “obviously decreased”. The “mean survival time (MST)” value ([3]; 10 mg/kg/day orally for 30 days) was 78.5 days, the “mean survival time (MST)” value ([3]; 30 mg/kg/day orally for 30 days) was 85.5 days and the IC50 (Molm-13) was 0.116 nM. The IC50 (Molm-13; read-out: Cell viability IC50) was 0.116 nM, the IC50 (H441) was greater than 10000 nM and the IC50 (MDA-MB-231) was greater than 10000 nM. It also gave a Kd (FLT3-D835Y) of 1.3 nM.
